# Data: PMC5404542, “In Vitro and In Vivo Antifungal Profile of a Novel and Long-Acting Inhaled Azole, PC945, on Aspergillus fumigatus Infection” (Antimicrobial Agents and Chemotherapy, 2017)
# Where “and” joins values, the source holds several entries; their conditions need not be identical. Identical values can stand only once.
# Experiments:
# AfCYP51B = target: T1, AfCYP51B (Aspergillus fumigatus, UniProt E9QY26); assay: A. fumigatus CYP51 binding assay (ligand titration, type II difference spectra); conditions: for Kd: 4 μM purified AfCYP51B
# T1 construct: made in house
# T1 sequence (E9QY26 whole entry): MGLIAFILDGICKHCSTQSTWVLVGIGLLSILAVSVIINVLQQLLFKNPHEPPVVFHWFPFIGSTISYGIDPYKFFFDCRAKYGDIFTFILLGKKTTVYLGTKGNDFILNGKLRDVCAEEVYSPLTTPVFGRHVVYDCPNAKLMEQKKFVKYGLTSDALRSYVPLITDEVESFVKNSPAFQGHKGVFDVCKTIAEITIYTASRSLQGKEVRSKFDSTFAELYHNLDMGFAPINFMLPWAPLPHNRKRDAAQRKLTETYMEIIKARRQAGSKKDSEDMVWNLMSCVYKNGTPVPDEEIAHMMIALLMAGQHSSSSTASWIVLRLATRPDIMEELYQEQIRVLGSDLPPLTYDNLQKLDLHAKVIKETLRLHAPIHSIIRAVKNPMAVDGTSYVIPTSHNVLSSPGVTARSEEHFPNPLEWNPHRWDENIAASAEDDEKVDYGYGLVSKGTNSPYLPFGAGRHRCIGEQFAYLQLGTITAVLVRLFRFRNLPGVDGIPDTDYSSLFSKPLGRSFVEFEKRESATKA
# Procedure: A. fumigatus CYP51 binding properties were determined as described by Warrilow et al. ([35]). Test agents were titrated against 4 μM recombinant A. fumigatus CYP51A or CYP51B protein, and binding saturation curves were constructed from the change in the absorbance between the spectral peak and the trough. A rearrangement of the Morrison equation was used to determine the dissociation constant (Kd) values when ligand binding was tight ([36]).
# A. fumigatus (NCPF2010) = assay: A. fumigatus cell-based ergosterol assay; parameters: species or system Aspergillus fumigatus; conditions: for IC50: Aspergillus fumigatus, NCPF2010, 24 h, normalized by crystal violet, read-out: IC50, inhibition of ergosterol production
# Procedure: After incubation for 24 h at 35°C, medium was removed from all wells and replaced with reaction buffer (Amplex red cholesterol assay kit; Thermo Fisher) and Amplex red solution. Plates were incubated for 30 min at 37°C, protected from light, after which fluorescence was quantified using a spectrophotometer. Medium was removed from all wells and replaced with crystal violet solution (1% [vol/vol]), and plates were incubated at room temperature on a shaker for 30 min. Plates were washed three times with phosphate-buffered saline (PBS), and sodium dodecyl sulfate solution (0.1% [vol/vol]) was added across the plate to lyse the cells. After incubation at room temperature for 1 h, the absorbance was measured by determining the OD590 by use of a spectrophotometer.
# [1] = tested on: Aspergillus carbonarius (ATCC 8740); assay: MIC, CLSI; assay type: cell-based; conditions: ATCC8740, 1 strain, CLSI, read-out: MIC
# [2] = tested on: Aspergillus flavus (ATCC 204304); assay: MIC, CLSI; assay type: cell-based; conditions: ATCC204304, 1 strain, CLSI, read-out: MIC
# [3] = tested on: Aspergillus flavus (AFL8, NRRC3357); assay: MIC, EUCAST; assay type: cell-based; conditions: 2 strains, EUCAST, mean isolate MIC, read-out: MIC
# [4] = tested on: Aspergillus niger (ATCC 1015); assay: MIC, EUCAST; assay type: cell-based; conditions: ATCC1015, 1 strain, EUCAST, read-out: MIC
# [5] = tested on: Penicillium citrinum (ATCC 9849); assay: MIC, CLSI; assay type: cell-based; conditions: ATCC9849, 1 strain
# [6] = tested on: Trichophyton rubrum (ATCC 10218); assay: MIC, CLSI; assay type: cell-based; conditions: ATCC10218, 1 strain
# [7] = tested on: Candida albicans (20240.047, ATCC 10231); assay: MIC, CLSI; assay type: cell-based; conditions: ATCC10231, 2 strains, CLSI, mean isolate MIC, read-out: MIC (the MIC given is the MIC50)
# [8] = tested on: AR Candida albicans (20183.073, 20186.025); assay: MIC, CLSI; assay type: cell-based; conditions: read-out: MIC (the MIC given is the MIC50)
# [9] = tested on: Candida glabrata (ATCC 36583, R363); assay: MIC, CLSI; assay type: cell-based; conditions: Nakaseomyces glabratus, ATCC36583; 2 strains, CLSI, mean isolate MIC; read-out: MIC (the MIC given is the MIC50)
# [10] = tested on: Chaetomium globosum (ATCC 44699); assay: MIC, CLSI; assay type: cell-based; conditions: ATCC44699, 1 strain
# [11] = tested on: Cryptococcus neoformans (ATCC 24067); assay: MIC, CLSI; assay type: cell-based; conditions: for MIC: Cryptococcus neoformans, ATCC24067, 1 strain, CLSI, read-out: MIC
# [12] = tested on: Lichtheimia corymbifera (ATCC 7909); assay: MIC, CLSI; assay type: cell-based; conditions: ATCC7909, 1 strain
# [13] = tested on: Rhizomucor pusillus (ATCC 16458); assay: MIC, CLSI; assay type: cell-based; conditions: ATCC16458, 1 strain
# [14] = tested on: A. fumigatus hyphae (NCPF2010)
# Procedure: The persistence of action of test agents was calculated for A. fumigatus hyphae (NCPF2010). […] The plates were incubated for exactly 20 min at 35°C and 5% CO2. After the incubation time had elapsed, all wells on the designated washout plate were aspirated, and growth medium (100 μl/well) was added across the plate. […] Resazurin (0.04%; diluted in growth medium) was added to all wells of both nonwashout and washout plates (5 μl/well) to give a final concentration of 0.002% resazurin. The plates were incubated at 35°C and 5% CO2 for 16 h. […] The percent inhibition for each well was calculated, and the IC50 was calculated from the concentration-response curve generated for each test compound by use of a four-parameter logistic equation (Dotmatics, Bishops Stortford, United Kingdom).
# A. fumigatus ATCC 204305 = assay: MIC with and without BSA supplementation, quality control strain; conditions: Aspergillus fumigatus
# Procedure: Conidia were added across the plate to a final concentration of 1 × 10^5 ml^−1. […] Determination of antifungal activity against 50 A. fumigatus clinical isolates from St. Louis Hospital (Paris, France) was performed with 96-well plates, using the modified EUCAST method in the presence of 0.5% BSA as described above. Antifungal susceptibility testing of 46 A. fumigatus isolates (obtained from the NW England Mycology Reference Centre) was performed by Evotec UK Ltd. (Manchester, United Kingdom) according to EUCAST guidelines.
# AfCYP51A = AfCYP51A (Aspergillus fumigatus, UniProt Q4WNT5); assay: CYP51 reconstitution assay (sterol 14α-demethylase activity); assay type: biochemical; parameters: made in house; host or cells: Escherichia coli (membrane fraction)
# AfCYP51A, sequence (Q4WNT5 whole entry): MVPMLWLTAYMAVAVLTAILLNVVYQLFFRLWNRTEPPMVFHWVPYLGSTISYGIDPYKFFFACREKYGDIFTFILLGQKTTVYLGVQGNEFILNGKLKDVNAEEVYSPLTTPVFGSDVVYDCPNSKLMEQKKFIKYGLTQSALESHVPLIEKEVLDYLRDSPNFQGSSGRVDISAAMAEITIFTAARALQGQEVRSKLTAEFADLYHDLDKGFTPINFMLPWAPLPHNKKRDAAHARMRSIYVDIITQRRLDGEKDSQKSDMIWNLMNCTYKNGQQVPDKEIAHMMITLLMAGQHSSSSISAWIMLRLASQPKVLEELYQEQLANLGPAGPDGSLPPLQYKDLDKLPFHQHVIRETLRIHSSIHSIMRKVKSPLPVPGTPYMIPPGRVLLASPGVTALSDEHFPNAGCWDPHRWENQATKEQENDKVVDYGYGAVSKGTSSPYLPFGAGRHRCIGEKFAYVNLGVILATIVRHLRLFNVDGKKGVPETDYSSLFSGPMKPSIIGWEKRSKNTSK
# Procedure: A CYP51 reconstitution assay system was used to determine 50% inhibitory concentrations (IC50s) ([37]). Test agent was added to a mixture of 0.5 μM CYP51, 1 μM A. fumigatus cytochrome P450 reductase isoenzyme 1 (AfCPR1), 50 μM eburicol, 4% (wt/vol) 2-hydroxypropyl-β-cyclodextrin, 0.4 mg ml^−1 isocitrate dehydrogenase, 25 mM trisodium isocitrate, 50 mM NaCl, 5 mM MgCl2, and 40 mM 3-(N-morpholino) propanesulfonic acid (MOPS) (pH ∼7.2). The mixtures were then incubated at 37°C for 10 min prior to initiation with 4 mM β-NADPHNa4 followed by shaking for 20 min at 37°C. Sterol metabolites were recovered by extraction with ethyl acetate followed by derivatization with 0.1 ml N,O-bis(trimethylsilyl)trifluoroacetamide:trimethylchlorosilane (99:1) and 0.3 ml anhydrous pyridine prior to analysis by gas chromatography-mass spectrometry.
# [15] = tested on: A. fumigatus (ATCC 13073 [strain NIH 5233]); assay: In vivo antifungal activity, intranasal treatment of temporarily neutropenic immunocompromised mice; conditions: for incidence of rolling behavior: 14 μg/mouse intranasally once daily
# Procedure: The mice were reared on a standard diet and tap water ad libitum. […] Conidia were aseptically dislodged from the agar plates and suspended in sterile distilled water with 0.05% Tween 80 and 0.1% agar. […] On day 0, 30 μl of the conidial suspension was administered intranasally.
# Test agents suspended in physiological saline were administered daily intranasally (35 μl) on days 1 to 6, and the survival of animals was recorded for 7 days. […] Deaths and the body weights of surviving animals were monitored daily. A body weight loss of >20% compared to an animal's weight on day 1 and mouse death were both defined as “dropout” events. Animals that lost >20% of their initial body weight were sacrificed. […] Bronchoalveolar lavage fluid (BALF) was collected on day 7 postinfection or on the day that the mouse dropped out of the study. The Aspergillus GM concentration in BALF was determined by use of Platelia GM-EIA kits (Bio-Rad Laboratories). The value was provided as the “cutoff index” (COI), which was calculated by the following formula: COI = OD in sample/OD in cutoff control (provided by the kit).
# [16] = 0.56 μg/mouse intranasally once daily days 1 to 6
# [17] = 2.8 μg/mouse intranasally once daily days 1 to 6
# [18] = 14 μg/mouse intranasally once daily days 1 to 6
# [19] = 70 μg/mouse intranasally once daily days 1 to 6
SMILES,IC50 (A. fumigatus (NCPF2010)),MIC [1],MIC [2],MIC [3],MIC [4],MIC [5],MIC [6],MIC50 [7],MIC50 [8],MIC50 [9],MIC [10],MIC [11],MIC [12],MIC [13],IC50 [14],"MIC (A. fumigatus ATCC 204305; ATCC204305, with BSA)","MIC (A. fumigatus ATCC 204305; ATCC204305, without BSA)",IC50 (AfCYP51A),Ki (AfCYP51A),"Median days of survival [15, 17]",further results
"Cc1cc(N2CCN(c3ccc(C(=O)Nc4ccc(F)cc4)cc3)CC2)ccc1OC[C@@H]1CO[C@@](Cn2cncn2)(c2ccc(F)cc2F)C1 [PC945, 4-[4-(4-{[(3R,5R)-5-(2,4-difluorophenyl)-5-(1H-1,2,4-triazol-1-ylmethyl)oxolan-3-yl]methoxy}-3-methylphenyl)piperazin-1-yl]-N-(4-fluorophenyl)benzamide]",0.0047 µg/mL and 6.9 nM,4000 ng/mL,> 8000 ng/mL,6000 ng/mL,> 8000 ng/mL,> 8000 ng/mL,31 ng/mL,81 ng/mL,8250 ng/mL,500 ng/mL,> 8000 ng/mL,8 ng/mL,> 8000 ng/mL,> 8000 ng/mL,0.086 ng/mL,62.5 ng/mL,250 ng/mL,230 nM,< 1 nM,6.5 days,"difference spectra on titration against purified CYP51B (AfCYP51B): type II difference spectra; Kd (AfCYP51B; Kd2, AfCYP51B, modified two-site allosteric model): 320 nM; fold more potent than posaconazole, ergosterol production (A. fumigatus (NCPF2010)): 2.6 fold; fold more potent than voriconazole, ergosterol production (A. fumigatus (NCPF2010)): 14 fold; fold more potent than both voriconazole and posaconazole ([11]; C. neoformans): 2 fold; Median days of survival [15, 16]: 6 days; No. of survivors on day 7/total no. of mice [15, 16]: 4/8; survivors on day 7 (%) [15, 16]: 50%; No. of survivors on day 7/total no. of mice [15, 17]: 5/8; survivors on day 7 (%) [15, 17]: 63%; incidence of rolling behavior [15]: substantially inhibited; Median days of survival [15, 18]: Undefined; No. of survivors on day 7/total no. of mice [15, 18]: 10/16; survivors on day 7 (%) [15, 18]: 63%"
"CC[C@@H]([C@H](C)O)n1ncn(-c2ccc(N3CCN(c4ccc(OC[C@@H]5CO[C@@](Cn6cncn6)(c6ccc(F)cc6F)C5)cc4)CC3)cc2)c1=O [Posaconazole, posaconazole]",0.012 µg/mL and 17 nM,63 ng/mL,130 ng/mL,160 ng/mL,200 ng/mL,500 ng/mL,31 ng/mL,81 ng/mL,8130 ng/mL,500 ng/mL,250 ng/mL,16 ng/mL,> 8000 ng/mL,> 8000 ng/mL,2.2 ng/mL,60 ng/mL,30 ng/mL,160 nM,< 1 nM,5 days,"Kd (AfCYP51B; Kd1, AfCYP51B, PC945: modified two-site allosteric model, posaconazole: single tight-binding Kd): 12 nM; No. of survivors on day 7/total no. of mice [15, 17]: 1/8; survivors on day 7 (%) [15, 17]: 13%; incidence of rolling behavior [15]: not; Median days of survival [15, 18]: 6 days; No. of survivors on day 7/total no. of mice [15, 18]: 7/16; survivors on day 7 (%) [15, 18]: 44%; Median days of survival [15, 19]: Undefined; No. of survivors on day 7/total no. of mice [15, 19]: 6/8; survivors on day 7 (%) [15, 19]: 75%"
